Laboratory results published in ChEMBL document CHEMBL3885881, “DrugMatrix”.

Species: Rattus norvegicus
Test: DrugMatrix - Regimen: Daily Repeat
Type: toxicity, organism-based, Sprague-Dawley
Set-up: regimen Daily Repeat, gender Male, age 6-8 weeks
Conditions: in vivo, po, route oral GAVAGE, vehicle .5 % CMC; for ABSOLUTE BASOPHIL / ABSOLUTE EOSINOPHIL / ABSOLUTE LYMPHOCYTE / ABSOLUTE MONOCYTE / ABSOLUTE SEGMENTED NEUTROPHIL / BASOPHIL / EOSINOPHIL / ERYTHROCYTE COUNT / HEMATOCRIT / HEMOGLOBIN / LEUKOCYTE COUNT / LYMPHOCYTE / MEAN CORPUSCULAR HEMOGLOBIN / MEAN CORPUSCULAR HEMOGLOBIN CONCENTRATION / MEAN CORPUSCULAR VOLUME / MONOCYTE / NEUTROPHIL / NUCLEATED RED BLOOD CELLS / PLATELET COUNT: tissue Blood; for ALANINE AMINOTRANSFERASE / ALBUMIN / ALKALINE PHOSPHATASE / ASPARTATE AMINOTRANSFERASE / BLOOD UREA NITROGEN / CARBON DIOXIDE / CHLORIDE / CHOLESTEROL / CREATINE PHOSPHOKINASE / CREATININE / GLUCOSE / LACTATE DEHYDROGENASE / LIPASE / PHOSPHORUS / POTASSIUM / SODIUM / TOTAL BILIRUBIN / TOTAL PROTEIN / URIC ACID: tissue Plasma
[1] = 0 mg/kg, 72 h, dose level Control, time 3 day
[2] = 0 mg/kg, 120 h, dose level Control, time 5 day
[3] = 150 mg/kg, 72 h, dose level Low, time 3 day

Compound: C[C@]1(Cn2ccnn2)[C@H](C(=O)O)N2C(=O)C[C@H]2S1(=O)=O [TAZOBACTAM]
- ABSOLUTE BASOPHIL [1]: 0 CELLS/uL
- ABSOLUTE EOSINOPHIL [1]: 222.83 CELLS/uL
- ABSOLUTE LYMPHOCYTE [1]: 14453 CELLS/uL
- ABSOLUTE MONOCYTE [1]: 0 CELLS/uL
- ABSOLUTE SEGMENTED NEUTROPHIL [1]: 1490.83 CELLS/uL
- BASOPHIL [1]: 0%
- EOSINOPHIL [1]: 1.33%
- ERYTHROCYTE COUNT [1]: 5.76 x10E6/uL
- HEMATOCRIT [1]: 36.52%
- HEMOGLOBIN [1]: 13.45 G/DL
- LEUKOCYTE COUNT [1]: 16.17 x10E3/uL
- LYMPHOCYTE [1]: 89.33%
- MEAN CORPUSCULAR HEMOGLOBIN [1]: 23.37 pg
- MEAN CORPUSCULAR HEMOGLOBIN CONCENTRATION [1]: 36.85 G/DL
- MEAN CORPUSCULAR VOLUME [1]: 63.47 fL
- MONOCYTE [1]: 0%
- NEUTROPHIL [1]: 9.33%
- NUCLEATED RED BLOOD CELLS [1]: 0 /100WBC
- PLATELET COUNT [1]: 1239.5 x10E3/uL
- ALANINE AMINOTRANSFERASE [1]: 43.83 u/L
- ALBUMIN [1]: 4.27 G/DL
- ALKALINE PHOSPHATASE [1]: 398.83 u/L
- ASPARTATE AMINOTRANSFERASE [1]: 81.17 u/L
- BLOOD UREA NITROGEN [1]: 17.67 mg/dL
- CARBON DIOXIDE [1]: 27.5 mmol/L
- CHLORIDE [1]: 99.17 MEQ/L
- CHOLESTEROL [1]: 74 mg/dL
- CREATINE PHOSPHOKINASE [1]: 331.5 u/L
- CREATININE [1]: 0.2 mg/dL
- GLUCOSE [1]: 171.33 mg/dL
- LACTATE DEHYDROGENASE [1]: 241.67 u/L
- LIPASE [1]: 9.5 u/L
- PHOSPHORUS [1]: 12.25 mg/dL
- POTASSIUM [1]: 6.33 MEQ/L
- SODIUM [1]: 141.28 MEQ/L
- TOTAL BILIRUBIN [1]: 0.15 mg/dL
- TOTAL PROTEIN [1]: 5.98 G/DL
- URIC ACID [1]: 1.63 mg/dL
- ABSOLUTE BASOPHIL [2]: 0 CELLS/uL
- ABSOLUTE EOSINOPHIL [2]: 148.67 CELLS/uL
- ABSOLUTE LYMPHOCYTE [2]: 16020.5 CELLS/uL
- ABSOLUTE MONOCYTE [2]: 29.17 CELLS/uL
- ABSOLUTE SEGMENTED NEUTROPHIL [2]: 1468.33 CELLS/uL
- BASOPHIL [2]: 0%
- EOSINOPHIL [2]: 1%
- ERYTHROCYTE COUNT [2]: 5.78 x10E6/uL
- HEMATOCRIT [2]: 35.77%
- HEMOGLOBIN [2]: 13.4 G/DL
- LEUKOCYTE COUNT [2]: 17.67 x10E3/uL
- LYMPHOCYTE [2]: 90.5%
- MEAN CORPUSCULAR HEMOGLOBIN [2]: 23.22 pg
- MEAN CORPUSCULAR HEMOGLOBIN CONCENTRATION [2]: 37.47 G/DL
- MEAN CORPUSCULAR VOLUME [2]: 61.92 fL
- MONOCYTE [2]: 0.17%
- NEUTROPHIL [2]: 8.33%
- NUCLEATED RED BLOOD CELLS [2]: 0.17 /100WBC
- PLATELET COUNT [2]: 1255.5 x10E3/uL
- ALANINE AMINOTRANSFERASE [2]: 46.5 u/L
- ALBUMIN [2]: 4.38 G/DL
- ALKALINE PHOSPHATASE [2]: 336 u/L
- ASPARTATE AMINOTRANSFERASE [2]: 76.5 u/L
- BLOOD UREA NITROGEN [2]: 20 mg/dL
- CARBON DIOXIDE [2]: 27.5 mmol/L
- CHLORIDE [2]: 101 MEQ/L
- CHOLESTEROL [2]: 71.33 mg/dL
- CREATINE PHOSPHOKINASE [2]: 231.83 u/L
- CREATININE [2]: 0.37 mg/dL
- GLUCOSE [2]: 168.83 mg/dL
- LACTATE DEHYDROGENASE [2]: 174 u/L
- LIPASE [2]: 8.67 u/L
- PHOSPHORUS [2]: 11.48 mg/dL
- POTASSIUM [2]: 6.82 MEQ/L
- SODIUM [2]: 143.8 MEQ/L
- TOTAL BILIRUBIN [2]: 0.2 mg/dL
- TOTAL PROTEIN [2]: 5.98 G/DL
- URIC ACID [2]: 1.83 mg/dL
- ABSOLUTE BASOPHIL [3]: 0 CELLS/uL
- ABSOLUTE EOSINOPHIL [3]: 82.67 CELLS/uL
- ABSOLUTE LYMPHOCYTE [3]: 6416 CELLS/uL
- ABSOLUTE MONOCYTE [3]: 0 CELLS/uL
- ABSOLUTE SEGMENTED NEUTROPHIL [3]: 534.67 CELLS/uL
- BASOPHIL [3]: 0%
- EOSINOPHIL [3]: 1%
- ERYTHROCYTE COUNT [3]: 5.07 x10E6/uL
- HEMATOCRIT [3]: 32.53%
- HEMOGLOBIN [3]: 12.5 G/DL
- LEUKOCYTE COUNT [3]: 7.03 x10E3/uL
- LYMPHOCYTE [3]: 91.67%
- MEAN CORPUSCULAR HEMOGLOBIN [3]: 24.63 pg
- MEAN CORPUSCULAR HEMOGLOBIN CONCENTRATION [3]: 38.43 G/DL
- MEAN CORPUSCULAR VOLUME [3]: 64.17 fL
- MONOCYTE [3]: 0%
- NEUTROPHIL [3]: 7.33%
- NUCLEATED RED BLOOD CELLS [3]: 0 /100WBC
- PLATELET COUNT [3]: 1184.33 x10E3/uL
- ALANINE AMINOTRANSFERASE [3]: 52.67 u/L
- ALBUMIN [3]: 4.23 G/DL
- ALKALINE PHOSPHATASE [3]: 410.33 u/L
- ASPARTATE AMINOTRANSFERASE [3]: 79.67 u/L
- BLOOD UREA NITROGEN [3]: 16.67 mg/dL
- CARBON DIOXIDE [3]: 24.33 mmol/L
- CHLORIDE [3]: 104 MEQ/L
- CHOLESTEROL [3]: 78 mg/dL
- CREATINE PHOSPHOKINASE [3]: 280.33 u/L
- CREATININE [3]: 0.2 mg/dL
- GLUCOSE [3]: 152.33 mg/dL
- LACTATE DEHYDROGENASE [3]: 134.33 u/L
- LIPASE [3]: 8 u/L
- PHOSPHORUS [3]: 11.47 mg/dL
- POTASSIUM [3]: 6.02 MEQ/L
- SODIUM [3]: 144.87 MEQ/L
- TOTAL BILIRUBIN [3]: 0.2 mg/dL
- TOTAL PROTEIN [3]: 5.9 G/DL
- URIC ACID [3]: 1.03 mg/dL
